Experimental data reported in ChEMBL document CHEMBL1201862, “PubChem BioAssay data set” (2004).
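Results reflect a 48-hour exposure of cells in 96-well plates to compound at five concentrations. Here, GI50 denotes the concentration required for 50% inhibition of growth.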 Activity calls are given as the source filed them. No stated cut-off is given here; in the data, active = GI50 up to about 1.1 µM and inactive = higher.

Tests used:
Assay in all cases: NCI anticancer screen, dose series, 48 h
SK-OV-3 = system: SK-OV-3
BT-549 = system: BT-549
TK-10 = system: TK-10
SR = system: SR
RXF 393 = system: RXF 393
OVCAR-4 = system: OVCAR-4
OVCAR-5 = system: OVCAR-5
OVCAR-8 = system: OVCAR-8
MCF7 = system: MCF7
K562 = system: K562
SK-MEL-2 = system: SK-MEL-2
MDA-MB-231 = system: MDA-MB-231
A549 = system: A549
OVCAR-3 = system: OVCAR-3
LOX IMVI = system: LOX IMVI
UACC-257 = system: UACC-257
MDA-N = system: MDA-N
HT-29 = system: HT-29
SNB-78 = system: SNB-78
M19-MEL = system: M19-MEL

| Compound | GI50 (SK-OV-3) | GI50 (BT-549) | GI50 (TK-10) | GI50 (SR) | GI50 (RXF 393) | GI50 (OVCAR-4) | GI50 (OVCAR-5) | GI50 (OVCAR-8) | GI50 (MCF7) | GI50 (K562) | GI50 (SK-MEL-2) | GI50 (MDA-MB-231) | GI50 (A549) | GI50 (OVCAR-3) | GI50 (LOX IMVI) | GI50 (UACC-257) | GI50 (MDA-N) | GI50 (HT-29) | GI50 (SNB-78) | GI50 (M19-MEL) |
| --- | --- | --- | --- | --- | --- | --- | --- | --- | --- | --- | --- | --- | --- | --- | --- | --- | --- | --- | --- | --- |
| O=C(O)[C@@H]1C[C@@H](O)CN1 | > 100 µM (inactive) | > 100 µM (inactive) | > 100 µM (inactive) | > 100 µM (inactive) | > 100 µM (inactive) | > 100 µM (inactive) | > 100 µM (inactive) | > 100 µM (inactive) | > 100 µM (inactive) | > 100 µM (inactive) | > 100 µM (inactive) | > 100 µM (inactive) | > 100 µM (inactive) | > 100 µM (inactive) | > 100 µM (inactive) | > 100 µM (inactive) | > 100 µM (inactive) | > 100 µM (inactive) | – | – |
| O=C(Nc1ccccc1)c1cc(S(=O)(=O)N2CCNC2=O)c(S)cc1Cl | > 100 µM (inactive) | > 100 µM (inactive) | > 100 µM (inactive) | > 100 µM (inactive) | > 100 µM (inactive) | > 100 µM (inactive) | > 100 µM (inactive) | > 100 µM (inactive) | > 100 µM (inactive) | > 100 µM (inactive) | > 100 µM (inactive) | > 100 µM (inactive) | > 100 µM (inactive) | > 100 µM (inactive) | > 100 µM (inactive) | > 100 µM (inactive) | > 100 µM (inactive) | > 100 µM (inactive) | – | – |
| O=C(CSc1nnc(Cc2ccccc2)o1)Nc1ccccc1Cl | > 100 µM (inactive) | – | > 100 µM (inactive) | – | – | > 100 µM (inactive) | > 100 µM (inactive) | > 100 µM (inactive) | – | > 100 µM (inactive) | > 100 µM (inactive) | – | > 100 µM (inactive) | > 100 µM (inactive) | > 100 µM (inactive) | – | – | > 100 µM (inactive) | > 100 µM (inactive) | > 100 µM (inactive) |
| COc1cc(Br)c(CC2=NCCc3cc(OC)c(OC)cc32)cc1OC | 24.6 µM (inactive) | – | 5.65 µM (inactive) | 6.78 µM (inactive) | – | 28.9 µM (inactive) | 3.88 µM (inactive) | 48.1 µM (inactive) | – | 5.4 µM (inactive) | 53.1 µM (inactive) | – | 21.1 µM (inactive) | 42.9 µM (inactive) | 9.93 µM (inactive) | 16.6 µM (inactive) | – | 2.16 µM (inactive) | – | 27.9 µM (inactive) |
| C=CCNC1=C2C[C@@H](C)C[C@@H](OC)[C@H](OC(=O)CN)[C@H](C)/C=C(\C)[C@@H](OC(N)=O)[C@H](OC)/C=C\C=C(/C)C(=O)NC(=CC1=O)C2=O | 0.162 µM (active) | 10.3 µM (inactive) | 0.355 µM (active) | 0.134 µM (active) | 1.95 µM (inactive) | 4.35 µM (inactive) | 6.25 µM (inactive) | 0.904 µM (active) | 0.162 µM (active) | 0.337 µM (active) | 0.453 µM (active) | 3.71 µM (inactive) | 0.359 µM (active) | 1.16 µM (inactive) | 0.528 µM (active) | 0.528 µM (active) | 0.223 µM (active) | 0.0406 µM (active) | – | – |
| C[C@]12CCCC(=O)C1C[C@H](C(=O)O)CC2 (some centres undefined) | > 100 µM (inactive) | – | > 100 µM (inactive) | > 100 µM (inactive) | – | > 100 µM (inactive) | > 100 µM (inactive) | > 100 µM (inactive) | – | > 100 µM (inactive) | > 100 µM (inactive) | – | > 100 µM (inactive) | > 100 µM (inactive) | > 100 µM (inactive) | > 100 µM (inactive) | – | > 100 µM (inactive) | – | > 100 µM (inactive) |
| CC1=C(C)C(=O)C2=C(OCCCO2)C1=O | > 100 µM (inactive) | – | > 10 µM (inactive) | 21.9 µM (inactive) | > 10 µM (inactive) | > 10 µM (inactive) | > 10 µM (inactive) | 18.7 µM (inactive) | – | 21.6 µM (inactive) | > 10 µM (inactive) | – | 81.8 µM (inactive) | 18.1 µM (inactive) | – | > 10 µM (inactive) | – | 20.8 µM (inactive) | – | 17.9 µM (inactive) |
| O=[N+]([O-])c1ccc(OCCNc2cccc3ccccc23)cc1 | > 100 µM (inactive) | – | > 100 µM (inactive) | – | – | > 100 µM (inactive) | > 100 µM (inactive) | 65.3 µM (inactive) | – | 18.6 µM (inactive) | > 100 µM (inactive) | – | 60.1 µM (inactive) | > 100 µM (inactive) | – | > 100 µM (inactive) | – | 85.5 µM (inactive) | – | > 100 µM (inactive) |
| COc1ccc2c(c1OC)C[C@@H]1c3c(cc4c(c3-2)OCO4)CCN1C | 23.3 µM (inactive) | 23.8 µM (inactive) | 25 µM (inactive) | 31.5 µM (inactive) | 20.5 µM (inactive) | 25.4 µM (inactive) | 59 µM (inactive) | 30.1 µM (inactive) | 16.6 µM (inactive) | 20.3 µM (inactive) | 28.2 µM (inactive) | 33.7 µM (inactive) | 40.2 µM (inactive) | 41.1 µM (inactive) | 15.3 µM (inactive) | 20 µM (inactive) | 44.1 µM (inactive) | 15.8 µM (inactive) | – | – |
